Test results as given in US20230173029A1, “TREATMENT OF CARDIAC REMODELLING” (UNIVERSITETET I OSLO, priority 2020, published 2023).

What was measured:
[1] = tested on: Dahl salt-sensitive (Dahl/SS) male rats; assay: Autopsy: body weight, heart weight and heart weight to body weight ratio in hypertensive Dahl/SS rats; assay type: in vivo, rat; details: for HW (heart weight) / HW/BW: HT Dahl/SS rats on high salt diet, at 6 weeks, mean ± SEM
Procedure: (§1) A total of 29 adult Dahl salt-sensitive (Dahl/SS) male rats with an initial weight of 150 to 200 g were included in the study. Rats were purchased from Charles River Laboratories (USA) and housed in a room with a 12/12-hour light cycle, a temperature of 21° C., and a humidity of 55%. Rats were maintained on a normal salt diet up to seven weeks of age. Twenty-two Dahl/SS were then randomly switched to a high salt diet for 6 weeks to induce hypertension, whilst 7 rats were kept normotensive (NT) on normal salt diet. Drinking water and food was provided ad libitum.
After 2 weeks of high salt diet, 15 hypertensive (HT) rats were started on treatment with proANP31-67. Rats treated with proANP31-67 received one of two dosages: 50 ng/kg/day (n=8) or 100 ng/kg/day (n=7). A total of 14 rats received only vehicle: control rats on a normal salt diet (n=7); and HT rats on a high salt diet (n=7). Rats were randomly assigned to the 3 groups (i.e. control normal salt; high salt untreated; high salt plus treatment).
Drug or vehicle was delivered via Alzet osmotic mini-pumps (Model 2004; mean pumping rate […], mean fill volume […]) implanted subcutaneously (as instructed by the manufacturer) for 28 days. Animals were treated with buprenorphine (0.05 mg/kg s.c.) as analgesic 30 minutes before and up to 1 day following implantation of pumps.
Experiments were performed as described above in Example 1, using a group of 8 Dahl/SS rats which, at 7 weeks of age, were switched to a high salt diet as described above. After 2 weeks of high salt diet, this group was started on proANP31-67 treatment. The rats were administered proANP31-67 at a renal sub-therapeutic dosage of 25 ng/kg/day.

SMAD2 = assay: Western blot of nuclear phosphorylated SMAD2 in left ventricle tissue; assay type: in vivo, rat; details: HT Dahl/SS rats, 50 or 100 ng/kg/day s.c. (pooled), FIG. 2E
Procedure: as §1
After 2 weeks of high salt diet, 15 hypertensive (HT) rats were started on treatment with proANP31-67. […]
Enriched nuclear protein fraction from left ventricle tissue was isolated using Compartment Protein Extraction Kit (Merck Millipore, Cat. #2145), according to the manufacturer's specifications. Protein concentration was measured by BCA assay kit (Thermo Fisher Scientific, Cat. #23225). […] Membranes were analysed with rabbit anti-SMAD2/3 (1:1000, Cell Signaling Technology, Cat. #8685) and rabbit anti-phospho-SMAD2 (Ser465/467) (1:500, Cell Signaling Technology, Cat. #3108). The membranes were developed using the ECL system (Pierce Protein Research Products) and ChemiDoc XRS (Bio-Rad), and quantified using Image Lab™ software (version 6.0.1, Bio-Rad).

[2] = tested on: rat neonatal cardiomyocytes; assay: In vitro [3H]leucine incorporation in ANGII-stimulated neonatal cardiomyocytes; assay type: cell-based; details: 24 h
Procedure: Primary cultures of rat cardiomyocyte cells were prepared as previously described (Larsen et al., Cardiovascular Research 80(1): 47-54, 2008). In brief, hearts from 1-3 day old Wistar rats (Taconic), were isolated by […] and pancreatin digestion. Cardiomyocytes were separated from noncardiomyocytes by differential attachment to uncoated culture flasks (90151; Techno Plastic Products). Cardiomyocytes were allowed to attach to 6- or 12-well culture plates (Corning International, Corning, N.Y.) coated with gelatine/fibronectin (G-1890/F1141; Sigma, St. Louis, Mo.) overnight in plating medium (2 or 1 ml) at a density of 2.5×10^5 cells/ml medium [DMEM (41965; GIBCO-BRL, Invitrogen) supplemented with penicillin/streptomycin/glutamine (G6784; Sigma), medium 199 (31150; GIBCO-BRL), HEPES (15630; GIBCO-BRL), horse serum (14-703E; Bio-Whittaker, Lonza), and fetal calf serum (14-701E; Bio-Whittaker)]. […]
5 μCi/ml [3H]leucine (American Radiolabeled Chemicals) were added at the same time as ANG II and the cells were washed six times in 95% EtOH before being harvested in 0.2 M NaOH 24 h after stimulation, as previously described (Halvorsen et al., Journal of Lipid Research 39(4): 901-912, 1998). […] [3H]leucine incorporation was quantified by measuring counts per minute in duplicates from each sample with the Wallac Winspectral 1414 liquid scintillation counter (PerkinElmer). […]

[3] = tested on: Dahl salt-sensitive (Dahl/SS) male rats; assay: Renal function and structure in hypertensive Dahl/SS rats (data not shown); assay type: in vivo, rat; details: HT Dahl/SS rats
[4] = 50 or 100 ng/kg/day s.c. (pooled) for 28 days

Substance: proANP31-67: Human proANP31-67, linear peptide fragment of proANP consisting of SEQ ID NO: 1; also known as vessel dilator, VSDL (EVVPPQVLSEPNEEAGAALSPLPEVPPWTGEVSPAQR; listed as Homo sapiens)
- HW (heart weight) ([1]; 25 ng/kg/day s.c.): 1304 ± 41.4 mg
- HW/BW ([1]; 25 ng/kg/day s.c.): 3.68 ± 0.07
- HW (heart weight) [1, 4]: 1365 ± 30.1 mg
- HW/BW [1, 4]: 3.97 ± 0.1 mg/g
- increase in HW/BW relative to NT rats ([1]; HT Dahl/SS rats, 25 ng/kg/day s.c., FIG. 5B): no increase
- percentage increase in heart weight/body weight compared to NT ([1]; HT Dahl/SS rats, 50 or 100 ng/kg/day s.c. (pooled), FIG. 1B): less than 5%
- SMAD2 phosphorylation (nuclear) compared to untreated HT rats (SMAD2): significantly lower
- ANGII-induced hypertrophy as indexed by [3H]-leucine incorporation ([2]; 37.5 ng/ml proANP31-67, 1 μM ANG II): prevented
- ANGII-induced hypertrophy as indexed by [3H]-leucine incorporation ([2]; 150 ng/ml proANP31-67, 1 μM ANG II): prevented
- protective effects on renal function ([3]; 25 ng/kg/day s.c.): not to display the protective effects on renal function
- effects on renal function and structure ([3]; 50 or 100 ng/kg/day s.c., data not shown): protective effects on renal function and structure
